Our source for the IC50 values is paper PMC6336494 (Nature communications, 2015).

The target of the assay is myeloperoxidase (MPO) (Homo sapiens, UniProt P05164). Briefly: guaiacol/H2O2 peroxidase activity assay with purified human MPO. It counts as biochemical.

The structures appear in SMILES notation.

Sequence of myeloperoxidase (MPO) (P05164 165-273): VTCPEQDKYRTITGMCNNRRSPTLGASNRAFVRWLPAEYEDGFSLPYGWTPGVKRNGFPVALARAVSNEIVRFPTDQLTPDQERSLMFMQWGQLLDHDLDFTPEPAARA
Sequence of myeloperoxidase (MPO) (P05164 279-745): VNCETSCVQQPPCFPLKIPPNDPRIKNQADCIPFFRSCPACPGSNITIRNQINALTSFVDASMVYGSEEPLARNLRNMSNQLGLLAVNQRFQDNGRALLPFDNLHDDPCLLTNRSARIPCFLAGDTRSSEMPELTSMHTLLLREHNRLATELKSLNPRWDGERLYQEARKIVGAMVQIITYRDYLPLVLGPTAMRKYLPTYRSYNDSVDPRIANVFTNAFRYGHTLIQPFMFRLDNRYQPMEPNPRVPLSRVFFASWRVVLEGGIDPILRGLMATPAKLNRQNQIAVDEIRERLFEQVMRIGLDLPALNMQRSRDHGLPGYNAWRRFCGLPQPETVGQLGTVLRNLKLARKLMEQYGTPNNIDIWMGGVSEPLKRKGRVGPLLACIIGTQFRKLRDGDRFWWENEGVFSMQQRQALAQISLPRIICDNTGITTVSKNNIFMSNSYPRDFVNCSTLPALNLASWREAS

The term IC50 denotes the concentration that gives 50% inhibition. Lower therefore signals greater potency. Compound `O=C(N[C@H]1COC(=O)[C@@H](NC(=O)c2cccc(O)c2O)COC(=O)[C@@H](NC(=O)c2cccc(O)c2O)COC1=O)c1cccc(O)c1O` [enterobactin] had an IC50 of approximately 1000 nM.
